Residue numbers refer to the chain shown, from its start. Read-outs that look alike come from different tables or passages of the source. Ends that are not written are not given here.

Common to all, as to assay: biochemical
Assay [1] has as its target T1, HLA-DP DPA1*01:03/DPB1*02:01 (Homo sapiens, UniProt P04440+P20036, A65V/A84D/A85E/K98E).
T1 sequence (P20036 29-260): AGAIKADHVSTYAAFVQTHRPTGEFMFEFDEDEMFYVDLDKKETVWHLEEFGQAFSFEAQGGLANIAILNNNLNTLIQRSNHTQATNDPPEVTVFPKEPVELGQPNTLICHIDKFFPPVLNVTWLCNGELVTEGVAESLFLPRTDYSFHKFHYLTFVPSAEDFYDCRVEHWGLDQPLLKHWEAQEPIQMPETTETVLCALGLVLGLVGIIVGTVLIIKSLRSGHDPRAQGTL
T1 sequence (P04440 30-258 A65V/A84D/A85E/K98E): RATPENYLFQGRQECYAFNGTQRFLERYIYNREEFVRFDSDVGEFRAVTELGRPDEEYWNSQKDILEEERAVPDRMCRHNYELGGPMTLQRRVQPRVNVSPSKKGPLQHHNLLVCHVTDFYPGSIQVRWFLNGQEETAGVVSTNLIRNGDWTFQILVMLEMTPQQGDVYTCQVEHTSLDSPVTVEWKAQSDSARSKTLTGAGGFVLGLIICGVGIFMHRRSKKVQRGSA
It is filed as binding.

In a further assay the target is HLA-DR DRB1*10:01 (Homo sapiens, UniProt P01903+P01911, A100R/A169T/D57E/F55L/F60V/F69Y/F76Y/I96L/L162R/M171V/P40V/Q260P/Q39E/Q99R/R195Q/R42F/S149N/S66Y/T210M/V115G/V67A/W38E/Y59R/Y61H). It is filed as binding.
Another assay deals with HLA-DR DRB1*15:01 (Homo sapiens, UniProt P01903+P01911). It counts as binding.
In another assay the target is HLA-DR DRB1*01:01 (Homo sapiens, UniProt P01903+P01911, A100R/D57E/F55L/F60I/F76Y/I96L/L162R/M171V/P40L/Q125E/R42F/V115G/Y59C). It is filed as binding.
Another assay has as its target HLA-DR DRB1*04:01 (Homo sapiens, UniProt P01903+P01911, A100K/A169T/F76Y/I96L/K127E/L162R/M171V/N62H/P40V/Q125Y/R42H/S133A/S149N/S66Y/V115G/V209L/W38E). It is filed as binding.
Assay [2] concerns the target T2, HLA-DP DPA1*01:03/DPB1*04:01 (Homo sapiens, UniProt P04440+P20036).
T2 sequence (P20036 29-260): T1 sequence (P20036 29-260)
T2 sequence (P04440 30-258): T1 sequence (P04440 30-258 A65V/A84D/A85E/K98E) with V36A, D55A, E56A, E69K
It counts as binding.

Another assay addresses HLA-DR DRB1*13:02 (Homo sapiens, UniProt P01903+P01911, A100E/A169T/K41T/L162R/M171V/P40S/Q125H/Q178H/Q39Y/Q99D/R42S/S66N/T262R/V115G/W38E/Y61H). It is filed as binding.
Another assay concerns the target HLA-DR DRB1*07:01 (Homo sapiens, UniProt P01903+P01911, A100R/A102G/A103Q/D57E/D86V/E43K/F76Y/K127E/L162R/M171V/P40G/Q125H/Q99D/R33Q/R42Y/R54Q/S133A/S66F/T210M/V115G/Y107V/Y59L/Y89S). It is filed as binding.
In a further assay the target is HLA-DR DRB1*11:01 (Homo sapiens, UniProt P01903+P01911, A100R/A169T/A87E/I96F/K41T/L162R/M171V/P40S/Q125H/Q178H/Q39Y/Q99D/R42S/S66Y/T262R/V115G/W38E). It is filed as binding.
HLA-DR DRB1*11:01, sequence (P01903 26-254 limits assumed, other chains not shown): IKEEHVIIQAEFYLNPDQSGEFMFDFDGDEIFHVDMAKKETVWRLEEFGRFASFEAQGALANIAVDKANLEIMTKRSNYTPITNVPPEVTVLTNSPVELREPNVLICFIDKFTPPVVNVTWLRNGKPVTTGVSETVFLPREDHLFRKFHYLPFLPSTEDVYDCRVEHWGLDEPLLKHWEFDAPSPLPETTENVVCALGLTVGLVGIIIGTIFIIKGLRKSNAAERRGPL
In a further assay the target is HLA-DR DRB3*02:02 (Homo sapiens, UniProt P01903+P79483, A212P/D57E/F66Y/L67A/R103Q/R218S/R40L/S89Y/T80R/V86D/Y55F/Y59H). It is filed as binding.
HLA-DR DRB3*02:02, sequence (P01903 26-254 limits assumed): as the sequence (P01903 26-254 limits assumed, other chains not shown) above
HLA-DR DRB3*02:02, sequence (P79483 30-266 R40L/Y55F/D57E/Y59H/F66Y/L67A/T80R/V86D/S89Y/R103Q/A212P/R218S limits assumed): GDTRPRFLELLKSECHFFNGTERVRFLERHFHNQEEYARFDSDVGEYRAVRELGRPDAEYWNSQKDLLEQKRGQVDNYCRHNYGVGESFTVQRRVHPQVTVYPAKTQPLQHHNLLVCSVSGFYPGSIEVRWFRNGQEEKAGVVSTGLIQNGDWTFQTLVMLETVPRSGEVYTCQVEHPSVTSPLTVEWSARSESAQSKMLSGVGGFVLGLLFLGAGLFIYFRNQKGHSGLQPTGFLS
A further assay deals with HLA-DR DRB1*16:02 (Homo sapiens, UniProt P01903+P01911, A100R/F76Y/I96L/Q99D/V115G). It counts as binding.
In assay [3] the target is T3, HLA-DP DPA1*01:03/DPB1*20:01 (Homo sapiens, UniProt P04440+P20036, A65V/A84D/A85E/E86D/F38Y/G113D/G114E/G40L/I94L/L37V/M116V/P115A/R125K/T199I).
T3 sequence (P20036 29-260): T1 sequence (P20036 29-260)
T3 sequence (P04440 30-258 L37V/F38Y/G40L/A65V/A84D/A85E/E86D/I94L/G113D/G114E/P115A/M116V/R125K/T199I/V234M): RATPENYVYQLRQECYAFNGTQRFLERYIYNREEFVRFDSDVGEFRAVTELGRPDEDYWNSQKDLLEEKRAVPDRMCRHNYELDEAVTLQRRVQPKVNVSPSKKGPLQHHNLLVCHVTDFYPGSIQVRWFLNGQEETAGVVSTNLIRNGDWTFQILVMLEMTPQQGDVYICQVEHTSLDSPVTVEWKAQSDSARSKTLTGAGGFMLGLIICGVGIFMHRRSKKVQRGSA
It counts as binding.

Assay [4] has as its target HLA-DP DPA1*02:01/DPB1*01:01 (Homo sapiens, UniProt P04440+P20036, F191V/F38Y/F64Y/G113D/G114E/K142R/L158P/L37V/M105V/M116V/M62Q/P115A/Q81R/R125K/R223Q/T114A/T199I/T259P).
For the next assay, the target named is HLA-DR DRB1*04:05 (Homo sapiens, UniProt P01903+P01911, A100R/A169T/D86S/F76Y/I96L/K127E/L162R/M171V/N62H/P40V/Q125Y/R42H/S133A/S149N/S66Y/V115G/V209L/W38E). It counts as binding.
Setting [5] is: read-out: Binding capacity/IC50 (nM) DPA1*01:03 DPB1*02:01.
Where [6] appears, read: read-out: Binding capacity/IC50 (nM) DRB1*10:01.
[7] abbreviates: read-out: Binding capacity/IC50 (nM) DRB1*01:01.
The mark [8] stands for this setting: read-out: Binding capacity/IC50 (nM) DRB1*04:01.
The mark [9] stands for this setting: read-out: Binding capacity/IC50 (nM) DRB1*13:02.
Setting [10] is: read-out: Binding capacity/IC50 (nM) DRB1*07:01.
The mark [11] stands for this setting: read-out: Binding capacity/IC50 (nM) DRB1*11:01.
[12] abbreviates: read-out: Binding capacity/IC50 (nM) DRB1*16:02.
Setting [13] is: read-out: Binding capacity/IC50 (nM) DPA1*01:03 DPB1*20:01.
Where [14] appears, read: read-out: Binding capacity/IC50 (nM) DRB1*04:05.
Setting [15] is: read-out: Binding capacity/IC50 (nM) DRB3*02:02.

HLA-DP DPA1*02:01/DPB1*01:01, sequence (P20036 29-260 A42M/M62Q/Q81R/T114A/K142R/L158P/F191V/T259P, other chains not shown): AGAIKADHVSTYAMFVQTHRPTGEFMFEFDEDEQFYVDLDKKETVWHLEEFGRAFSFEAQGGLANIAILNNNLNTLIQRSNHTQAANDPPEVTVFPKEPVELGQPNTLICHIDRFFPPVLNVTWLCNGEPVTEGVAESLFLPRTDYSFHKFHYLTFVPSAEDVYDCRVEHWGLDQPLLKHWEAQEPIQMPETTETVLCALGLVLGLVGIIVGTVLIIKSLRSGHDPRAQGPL
HLA-DR DRB1*13:02, sequence (P01903 26-254 limits assumed, other chains not shown): as the sequence (P01903 26-254 limits assumed, other chains not shown) above

For the molecule `CC[C@H](C)[C@H](NC(=O)[C@@H]1CCCN1C(=O)[C@H](CCC(=O)O)NC(=O)[C@@H](N)CCCCN)C(=O)N[C@H](C(=O)NCC(=O)N[C@@H](C)C(=O)N[C@@H](CCC(=O)O)C(=O)N[C@H](C(=O)N[C@@H](Cc1ccccc1)C(=O)N[C@@H](Cc1ccc(O)cc1)C(=O)N[C@H](C(=O)N[C@@H](CC(=O)O)C(=O)NCC(=O)N[C@@H](C)C(N)=O)C(C)C)[C@@H](C)O)C(C)C` [RT(431-445)], the IC50 in assay [1] (setting [5]) worked out at 30 nM; on HLA-DR DRB1*10:01 (setting [6]), 4.4 nM; on HLA-DR DRB1*15:01 (read-out: Binding capacity/IC50 (nM) DRB1*15:01), 230 nM; at HLA-DR DRB1*01:01 (setting [7]), 5.1 nM; on HLA-DR DRB1*04:01 (setting [8]) it was 23 nM; in [2], 4660 nM. The IC50 on HLA-DR DRB1*13:02 (setting [9]) came to 266 nM; at HLA-DR DRB1*07:01 (setting [10]) it was 75 nM; on HLA-DR DRB1*11:01 (setting [11]), 3190 nM; at HLA-DR DRB3*02:02, 611 nM; on HLA-DR DRB1*16:02 (setting [12]), 80 nM; in [3] (setting [13]), 26100 nM. The IC50 in [4] is 205 nM; on HLA-DR DRB1*04:05 (setting [14]) it was 50 nM.

As to `CC[C@H](C)[C@H](NC(=O)[C@H](C)NC(=O)[C@@H](N)CCC(=O)O)C(=O)N[C@H](C(=O)N[C@@H](CCCNC(=N)N)C(=O)N[C@H](C(=O)N[C@@H](CC(C)C)C(=O)N[C@@H](CCC(N)=O)C(=O)N[C@@H](CCC(N)=O)C(=O)N[C@@H](CC(C)C)C(=O)N[C@@H](CC(C)C)C(=O)N[C@@H](Cc1ccccc1)C(=O)N[C@H](C(=O)N[C@@H](Cc1c[nH]cn1)C(=O)N[C@@H](Cc1ccccc1)C(=O)N[C@@H](CCCNC(=N)N)C(=O)N[C@H](C(=O)NCC(=O)N[C@@H](CS)C(=O)N[C@@H](CCC(N)=O)C(=O)N[C@@H](Cc1c[nH]cn1)C(=O)N[C@@H](CO)C(=O)N[C@@H](CCCNC(=N)N)C(N)=O)[C@@H](C)CC)[C@@H](C)CC)[C@@H](C)CC)[C@@H](C)CC` [vpr(58-80)], the IC50 came out at 717 nM in assay [1] (setting [5]); 170 nM against HLA-DR DRB1*10:01; 149 nM on HLA-DR DRB1*15:01; 305 nM against HLA-DR DRB1*01:01; 361 nM against HLA-DR DRB1*04:01; 113 nM in assay [2] (read-out: Binding capacity/IC50 (nM) DPA1*01:03 DPB1*04:01). Further, the IC50 against HLA-DR DRB1*13:02 turned out to be 5010 nM; against HLA-DR DRB1*07:01 it was 885 nM; against HLA-DR DRB1*11:01, 724 nM; on HLA-DR DRB3*02:02 (setting [15]), 4090 nM; at HLA-DR DRB1*16:02, 588 nM; in [3], 398 nM. For the same molecule, the IC50 in [4] came to 2630 nM; at HLA-DR DRB1*04:05, 294 nM.

In the case of “VVIQDNSDIKVVPRRKAKII-NH2 [integrase(249-268)]”, the IC50 in assay [1] was 7420 nM; against HLA-DR DRB1*10:01 it was 913 nM; against HLA-DR DRB1*15:01 it was 139 nM; on HLA-DR DRB1*01:01, 110 nM; against HLA-DR DRB1*04:01, 2870 nM; in assay [2], 9120 nM. For the same molecule, the IC50 worked out at 5420 nM on HLA-DR DRB1*13:02; 5710 nM on HLA-DR DRB1*07:01; 28 nM against HLA-DR DRB1*11:01; 4530 nM on HLA-DR DRB3*02:02 (setting [15]); 500 nM against HLA-DR DRB1*16:02; 1080 nM in assay [3] (setting [13]). Moreover, the figures for the IC50 (in assay [4]; against HLA-DR DRB1*04:05) were 5730 nM and 6080 nM, respectively.

In the case of `CC[C@H](C)[C@H](NC(=O)[C@H](CCCCN)NC(=O)[C@H](CCC(N)=O)NC(=O)[C@@H](NC(=O)[C@H](C)NC(=O)[C@H](CCC(=O)O)NC(=O)[C@@H](N)[C@@H](C)O)C(C)C)C(=O)N[C@@H](C)C(=O)N[C@H](C(=O)N[C@@H](CCC(=O)O)C(=O)N[C@@H](CO)C(=O)N[C@H](C(=O)N[C@H](C(=O)N[C@H](C(=O)N[C@@H](Cc1c[nH]c2ccccc12)C(=O)NCC(=O)N[C@@H](CCCCN)C(=O)N[C@H](C(=O)N1CCC[C@H]1C(=O)N[C@@H](CCCCN)C(=O)N[C@@H](Cc1ccccc1)C(=O)N[C@@H](CCCNC(=N)N)C(=O)N[C@@H](CC(C)C)C(N)=O)[C@@H](C)O)[C@@H](C)CC)C(C)C)[C@@H](C)CC)[C@@H](C)O` [RT(369-391)], the IC50 in assay [1] (setting [5]) came out at 2210 nM; on HLA-DR DRB1*10:01 (setting [6]) it was 24 nM; against HLA-DR DRB1*15:01, 447 nM; at HLA-DR DRB1*01:01 (setting [7]), 65 nM; at HLA-DR DRB1*04:01 (setting [8]) it was 146 nM; in assay [2], 3220 nM. Further, the IC50 on HLA-DR DRB1*13:02 (setting [9]) was 1290 nM; at HLA-DR DRB1*07:01 (setting [10]) it was 20 nM; at HLA-DR DRB1*11:01 (setting [11]) it was 329 nM; on HLA-DR DRB3*02:02 (setting [15]) it was 8840 nM; at HLA-DR DRB1*16:02 (setting [12]) it was 2130 nM; in assay [3] (setting [13]), 972 nM. For the same molecule, the IC50 in assay [4] was found to be 1540 nM; on HLA-DR DRB1*04:05 (setting [14]) it was 2630 nM.

These data come from paper PMC3445454, “Broad and Cross-Clade CD4^+ T-Cell Responses Elicited by a DNA Vaccine Encoding Highly Conserved and Promiscuous HIV-1 M-Group Consensus Peptides” (PLoS ONE, 2012).
